Results as given in patent US8251060B2, “Device and method for delivering an aerosol drug” (priority 2006, dated 2012).

What was measured:
[1] = aerosol formed from the polyol; cited from earlier work
[2] = Mass transfer of polyol-drug formulations from substrate in device with puffing equipment; effluent collected on Cambridge pads, weighed, nicotine by GC/MS; settings: after heating in device with PEG

SMILES | MMAD [1] | decomposition products from nicotine in the chromatograms (GC/MS of extracts of collected effluent) [2]
OCC(O)CO [Glycerin] | less than 1.5 micrometers | 
CN1CCCC1c1cccnc1.O=C(O)C(O)C(O)C(=O)O (stereo not shown) [NIC B, nicotine bitartrate] |  | no measurable decomposition products
CN1CCCC1c1cccnc1 (stereo not shown) [NIC, nicotine] |  | no measurable decomposition products
CC(O)CO (stereo not shown) [Propylene Glycol (PEG), Propylene Glycol] | less than 0.9 micrometers | 
